# Assay results: publication PMC7802074, “Azanitrile Inhibitors of the SmCB1 Protease Target Are Lethal to Schistosoma mansoni: Structural and Mechanistic Insights into Chemotype Reactivity” (ACS Infectious Diseases, 2020)
# Where “and” joins values, the source holds several entries; their conditions need not be identical. Identical values can stand only once. Like-named read-outs stand apart in the source and are kept apart here.
# Tests used:
# [1] = test system: S. mansoni newly transformed schistosomula (NTS); assay: Schistosome phenotypic assay; format: cell-based, Schistosoma mansoni; details: for Severity score Day 1 / Severity score Day 2 / Severity score Day 3 / Severity score Day 4: 10 μM inhibitor, scale 0 (no effect) to 4 (severe); for Severity score Day 1: 24 h; for Severity score Day 2: 48 h
# Method: Newly transformed schistosomula (NTS) of S. mansoni were prepared by mechanically transforming infective larvae (cercariae) as described previously.[70],[71] NTS (200–300 parasites) were incubated in 200 μL of Basch Medium 169 containing 5% FBS, 100 U mL^–1 penicillin, and 100 μg mL^–1 streptomycin at 5% CO2 and 37 °C.[70],[72],[73] Inhibitors were added at the final concentration of 10 μM,[20],[69] and changes in phenotypes were observed every 24 h for up to 4 days. A constrained nomenclature of “descriptors” is used to record the multiple and dynamic changes in movement, shape, and translucence of which the schistosome parasite is capable (Table S3).[70] These descriptors are then converted into an ordinal “severity score” system from 0 (no effect) to 4 (maximum effect), which allows for the relative comparison of compound effects, as described.[74],[75] Images of NTS were captured using a Zeiss Axiovert 40 C inverted microscope (10× objective) and a Zeiss AxioCam MRc digital camera controlled by AxioVision 40 (v. 4.8.1.0) software.
# recombinant SmCB1 = recombinant SmCB1 (Schistosoma mansoni, UniProt Q8MNY2, T185A/T300A); assay: SmCB1 kinetic inhibition assay with fluorogenic substrate Cbz-Phe-Arg-AMC; format: biochemical; details: for Ki / SmCB1 inhibition k2nd (second-order rate constant): substrate Cbz-Phe-Arg-AMC; for binding kinetics (shape of progress curves): Figure 2; for SmCB1 inhibition k2nd (second-order rate constant): slow-binding azadipeptide nitriles
# Method: Inhibition measurements were performed in triplicates in 96-well microplates (100 μL assay volume) at 37 °C. SmCB1 (20–40 pM) was added to a mixture of the fluorogenic substrate Cbz-Phe-Arg-AMC (20 μM) and an inhibitor (0–100 μM) in 0.1 M sodium acetate, pH 5.5, containing 2.5 mM dithiothreitol and 0.1% PEG 6000. The substrate hydrolysis was monitored in an Infinite M1000 microplate reader (Tecan, Männedorf, Switzerland) at excitation and emission wavelengths of 360 and 465 nm, respectively, for up to 15 and 60 min for fast- and slow-binding inhibitors, respectively. […] For slow-binding inhibitors, an observed first-order rate constant kobs was calculated at each inhibitor concentration by fitting the progress curve to the equation P = vst + (vi – vs)(1 – […])/kobs + d, where P is the product formation, vs is the steady-state velocity, t is the reaction time, vi is the initial velocity, and d is the offset. The inhibition constant Ki′ was determined by nonlinear regression using the equation vs/v0 = 1/(1 + [I]/Ki′). The true inhibition constants Ki were then calculated using the equation Ki = Ki′/(1 + [S]/Km), where [S] is the substrate concentration and Km is the Michaelis constant. The apparent second-order rate constant k2nd′ was determined by fitting to the linear equation kobs = k2nd′[I] + koff, where koff is the first-order rate constants for the dissociation of the enzyme–inhibitor complex and the true constant k2nd was calculated by the correction k2nd = k2nd′(1 + [S]/Km). […] In none of the assay systems did the final concentration of DMSO exceed 1.5%.
# [2] = SmCB1 inhibition Ki, Table S2, carbadipeptide nitriles
# [3] = SmCB1 inhibition Ki, kinetic activity assay, pH 5.5, 37 °C
# [4] = Table S2, carbadipeptide nitriles, read-out: SmCB1 inhibition Ki
# Chain of recombinant SmCB1 (Q8MNY2 87-340 T185A/T300A): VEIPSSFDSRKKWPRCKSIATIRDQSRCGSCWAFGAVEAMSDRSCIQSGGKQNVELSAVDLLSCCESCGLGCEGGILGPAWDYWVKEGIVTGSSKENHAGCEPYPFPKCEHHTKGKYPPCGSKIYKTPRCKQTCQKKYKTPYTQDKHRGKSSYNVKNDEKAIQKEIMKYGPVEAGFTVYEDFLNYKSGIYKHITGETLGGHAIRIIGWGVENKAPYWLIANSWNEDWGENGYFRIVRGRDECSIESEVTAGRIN
smiles,measurement,setting,value
CN(C#N)N(C)C(=O)CNC(=O)OCc1ccccc1 [Compound 1a],Severity score Day 1,[1],0 and 0/0
same,Severity score Day 2,[1],0 and 0/0
same,Severity score Day 3,[1],0
same,Severity score Day 4,[1],0
same,phenotype severity against NTS,"[1]; 10 μM, up to 4 days",ineffective
N#CCNC(=O)CNC(=O)OCc1ccccc1 [Compound 1c],Severity score Day 1,[1],0
same,Severity score Day 2,[1],0
same,Severity score Day 3,[1],0
same,Severity score Day 4,[1],0
same,Ki,recombinant SmCB1; [2],> 10 µM
same,Ki,recombinant SmCB1; [3],> 100 µM
CN(C#N)N(C)C(=O)[C@H](Cc1ccccc1)NC(=O)OCc1ccccc1 [Compound 2a],Descriptors Day 1 (phenotypic changes),[1]; 10 µM inhibitor,Deg
same,Descriptors Day 2 (phenotypic changes),[1]; 10 µM inhibitor,Deg
same,Severity score Day 1,[1],4 and 4/4
same,Severity score Day 2,[1],4 and 4/4
same,Severity score Day 3,[1],4
same,Severity score Day 4,[1],4
same,koff,recombinant SmCB1,0.0003 ± 2e-05 s⁻¹
same,binding kinetics (shape of progress curves),recombinant SmCB1,slow-binding
same,Ki,recombinant SmCB1; [3],0.0194 ± 0.0014 µM
same,SmCB1 inhibition k2nd (second-order rate constant),recombinant SmCB1,15.7 ± 1.1 10^3 M^-1 s^-1
N#CCNC(=O)[C@H](Cc1ccccc1)NC(=O)OCc1ccccc1 [Compound 2c],Severity score Day 1,[1],0
same,Severity score Day 2,[1],0
same,Severity score Day 3,[1],0
same,Severity score Day 4,[1],0
same,binding kinetics (shape of progress curves),recombinant SmCB1,fast-binding
same,Ki,recombinant SmCB1; [2],2.92 ± 0.32 µM
same,Ki,recombinant SmCB1; [3],2.92 ± 0.32 µM
"CC(C)C[C@H](NC(=O)NCc1ccccc1)C(=O)NCC#N [Compound 3c, (S)-2-(3-Benzylureido)-N-(cyanomethyl)-4-methylpentanamide]",Severity score Day 1,[1],0
same,Severity score Day 2,[1],0
same,Severity score Day 3,[1],0
same,Severity score Day 4,[1],0
same,Ki,recombinant SmCB1; [2],> 10 µM
same,Ki,recombinant SmCB1; [3],> 100 µM
CC(C)C[C@H](NC(=O)Nc1ccc(-c2noc(-c3cccs3)n2)cc1)C(=O)N(C)N(C)C#N [Compound 4a],Descriptors Day 1 (phenotypic changes),[1]; 10 µM inhibitor,"R, Unc, Dark"
same,Descriptors Day 2 (phenotypic changes),[1]; 10 µM inhibitor,Deg
same,Severity score Day 1,[1],3
same,Severity score Day 2,[1],4
same,Severity score Day 3,[1],4
same,Severity score Day 4,[1],4
same,Ki,recombinant SmCB1; [3],0.0367 ± 0.0026 µM
same,SmCB1 inhibition k2nd (second-order rate constant),recombinant SmCB1,13.9 ± 2.9 10^3 M^-1 s^-1
CC(C)C[C@H](NC(=O)Nc1ccc(-c2noc(-c3cccs3)n2)cc1)C(=O)NCC#N [Compound 4c],Descriptors Day 1 (phenotypic changes),[1]; 10 µM inhibitor,"R, S"
same,Descriptors Day 2 (phenotypic changes),[1]; 10 µM inhibitor,R
same,Descriptors Day 4 (phenotypic changes),[1]; 10 µM inhibitor,"R, S"
same,Severity score Day 1,[1],2
same,Severity score Day 2,[1],1
same,Severity score Day 3,[1],0
same,Severity score Day 4,[1],2
same,Ki,recombinant SmCB1; [2],6.62 ± 0.91 µM
same,Ki,recombinant SmCB1; [3],6.62 ± 0.91 µM
CC(C)C[C@H](NC(=O)c1ccc(-c2noc(-c3cccs3)n2)cc1)C(=O)NCC#N [Compound 5c],Descriptors Day 2 (phenotypic changes),[1]; 10 µM inhibitor,R
same,Descriptors Day 3 (phenotypic changes),[1]; 10 µM inhibitor,"R, Dark"
same,Descriptors Day 4 (phenotypic changes),[1]; 10 µM inhibitor,Deg
same,Severity score Day 1,[1],0
same,Severity score Day 2,[1],1
same,Severity score Day 3,[1],2
same,Severity score Day 4,[1],4
same,Ki,recombinant SmCB1; [2],1.22 ± 0.2 µM
same,Ki,recombinant SmCB1; [3],1.21 ± 0.205 µM
CC(C)C[C@@H](C(=O)N(C)N(C)C#N)N(C)C(=O)c1ccc(-c2noc(-c3cccs3)n2)cc1 [Compound 6a],Descriptors Day 1 (phenotypic changes),[1]; 10 µM inhibitor,Deg
same,Descriptors Day 2 (phenotypic changes),[1]; 10 µM inhibitor,Deg
same,Severity score Day 1,[1],4 and 4/4
same,Severity score Day 2,[1],4 and 4/4
same,Severity score Day 3,[1],4
same,Severity score Day 4,[1],4
same,Ki,recombinant SmCB1; [3],1.54 ± 0.25 µM
same,decrease in potency versus 5a,recombinant SmCB1; ratio of SmCB1 Ki values,300 fold
same,SmCB1 inhibition k2nd (second-order rate constant),recombinant SmCB1,0.5 ±0.1 10^3 M^-1 s^-1
CC(C)C[C@@H](C(=O)NCC#N)N(C)C(=O)c1ccc(-c2noc(-c3cccs3)n2)cc1 [Compound 6c],Descriptors Day 4 (phenotypic changes),[1]; 10 µM inhibitor,R
same,Severity score Day 1,[1],0
same,Severity score Day 3,[1],0
same,Ki,recombinant SmCB1; [2],> 10 µM
same,Ki,recombinant SmCB1; [3],> 100 µM
CN(C#N)N(C)C(=O)C1(NC(=O)c2ccc(-c3noc(-c4cccs4)n3)cc2)CCCCC1 [Compound 7a],Descriptors Day 1 (phenotypic changes),[1]; 10 µM inhibitor,"R, Unc, Dark"
same,Descriptors Day 2 (phenotypic changes),[1]; 10 µM inhibitor,Deg
same,Severity score Day 1,[1],3
same,Severity score Day 2,[1],4
same,Severity score Day 3,[1],4
same,Severity score Day 4,[1],4
same,Ki,recombinant SmCB1; [3],0.229 ± 0.007 µM
N#CCNC(=O)C1(NC(=O)c2ccc(-c3noc(-c4cccs4)n3)cc2)CCCCC1 [Compound 7c],Severity score Day 1,[1],0
same,Severity score Day 2,[1],0
same,Severity score Day 3,[1],0
same,Severity score Day 4,[1],0
same,Ki,recombinant SmCB1; [2],> 10 µM
same,Ki,recombinant SmCB1; [3],> 100 µM
CC(C)(C)OC(=O)NCC(=O)NCC#N [Gü807],Ki,recombinant SmCB1; [4],> 10 µM
CC(C)(C)OC(=O)N[C@@H](Cc1ccccc1)C(=O)NCC#N [Gü809],Ki,recombinant SmCB1; [4],> 10 µM
CC(C)C[C@H](NC(=O)OC(C)(C)C)C(=O)NCC#N [Gü914],Ki,recombinant SmCB1; [4],> 10 µM
CC(C)(C)OC(=O)N[C@@H](Cc1ccc(O)cc1)C(=O)NCC#N [Gü915],Ki,recombinant SmCB1; [4],> 10 µM
CC(C)(C)OC(=O)N[C@@H](Cc1c[nH]c2ccccc12)C(=O)NCC#N [Gü916],Ki,recombinant SmCB1; [4],> 10 µM
CC(C)C[C@H](NC(=O)OCc1ccccc1)C(=O)NCC#N [Gü928],Ki,recombinant SmCB1; [4],> 10 µM
CC(C)(C)OC(=O)N[C@@H](CC1CCCCC1)C(=O)NCC#N [Gü929],Ki,recombinant SmCB1; [4],> 10 µM
CC(C)(C)OC(=O)N[C@@H](COCc1ccccc1)C(=O)NCC#N [Gü930],Ki,recombinant SmCB1; [4],> 10 µM
CC(C)[C@H](NC(=O)OC(C)(C)C)C(=O)NCC#N [Gü931],Ki,recombinant SmCB1; [4],> 10 µM
CCC(C)C(NC(=O)OC(C)(C)C)C(=O)NCC#N (centres unmarked) [Gü932],Ki,recombinant SmCB1; [4],> 10 µM
C[C@H](NC(=O)OC(C)(C)C)C(=O)NCC#N [Gü933],Ki,recombinant SmCB1; [4],> 10 µM
CSCC[C@H](NC(=O)OC(C)(C)C)C(=O)NCC#N [Gü935],Ki,recombinant SmCB1; [4],> 10 µM
CC(C)(C)OC(=O)N1CCC[C@H]1C(=O)NCC#N [Gü936],Ki,recombinant SmCB1; [4],> 10 µM
CSCC[C@@H](C#N)NC(=O)[C@H](Cc1ccccc1)NC(=O)OC(C)(C)C [Gü968],Ki,recombinant SmCB1; [4],> 10 µM
CC(C)(C)OC(=O)N[C@@H](Cc1ccccc1)C(=O)N[C@H](C#N)CC#N [Gü970],Ki,recombinant SmCB1; [4],> 10 µM
CC(C)(C)OC(=O)N[C@@H](Cc1ccc(Br)cc1)C(=O)NCC#N [Gü1121],Ki,recombinant SmCB1; [4],> 10 µM
CC(C)(C)OC(=O)N[C@@H](Cc1cccc(Br)c1)C(=O)NCC#N [Gü1122],Ki,recombinant SmCB1; [4],> 10 µM
CC(C)(C)OC(=O)N[C@@H](Cc1cccc2ccccc12)C(=O)NCC#N [Gü1127],Ki,recombinant SmCB1; [4],> 10 µM
CC(C)(C)OC(=O)N[C@@H](CCc1ccccc1)C(=O)NCC#N [Gü1129],Ki,recombinant SmCB1; [4],> 10 µM
CC(C)(C)OC(=O)N[C@H](C(=O)NCC#N)c1ccccc1 [Gü1130],Ki,recombinant SmCB1; [4],> 10 µM
CCC[C@H](NC(=O)OC(C)(C)C)C(=O)NCC#N [Gü1131],Ki,recombinant SmCB1; [4],> 10 µM
CC[C@H](NC(=O)OC(C)(C)C)C(=O)NCC#N [Gü1132],Ki,recombinant SmCB1; [4],> 10 µM
CC(C)(C)OC(=O)N[C@H](Cc1ccccc1)C(=O)NCC#N [Gü1133],Ki,recombinant SmCB1; [4],> 10 µM
CC(=O)N[C@@H](Cc1ccccc1)C(=O)NCC#N [Gü1134],Ki,recombinant SmCB1; [4],> 10 µM
N#CCNC(=O)[C@H](Cc1ccccc1)NC(=O)c1ccccc1 [Gü1135],Ki,recombinant SmCB1; [4],> 10 µM
CC(C)(C)OC(=O)N[C@@H](CC1CC1)C(=O)NCC#N [Gü1228],Ki,recombinant SmCB1; [4],> 10 µM
CC(C)(C)OC(=O)N[C@@H](Cc1ccsc1)C(=O)NCC#N [Gü1232],Ki,recombinant SmCB1; [4],> 10 µM
CC(C)(C)OC(=O)N[C@@H](Cc1ccc(F)cc1)C(=O)NCC#N [Gü1237],Ki,recombinant SmCB1; [4],> 10 µM
CC(C)(C)OC(=O)N[C@@H](Cc1cccc(F)c1)C(=O)NCC#N [Gü1239],Ki,recombinant SmCB1; [4],> 10 µM
CC(C)(C)OC(=O)N[C@@H](Cc1ccccc1F)C(=O)NCC#N [Gü1242],Ki,recombinant SmCB1; [4],> 10 µM
CC(C)(C)OC(=O)N[C@@H](Cc1csc2ccccc12)C(=O)NCC#N [Gü1246],Ki,recombinant SmCB1; [4],> 10 µM
N#CCNC(=O)C1(NC(=O)OCc2ccccc2)CCCCC1 [Gü2195],Ki,recombinant SmCB1; [4],> 10 µM
